In patent US9701675B2, “Activation of TRPV4 ion channel by physical stimuli and critical role for TRPV4 in organ-specific inflammation and itch” (Duke University, priority 2012, dated 2017):
“Also recorded” adds a separate entry of the source. Where a SMILES comes first, the peptide text is derived from it. [ ]: non-standard residue; d: D form.

Experiments:
[1] = molecular target: T1, TRPV4 (Mus musculus, UniProt Q9EPK8); assay: GSK101-evoked Ca++ transient in 1° MK (fura-2); type: cell-based
T1 construct: endogenous in cells; host or cells: primary mouse keratinocytes (WT 1° MK)
T1 sequence (Q9EPK8 whole entry): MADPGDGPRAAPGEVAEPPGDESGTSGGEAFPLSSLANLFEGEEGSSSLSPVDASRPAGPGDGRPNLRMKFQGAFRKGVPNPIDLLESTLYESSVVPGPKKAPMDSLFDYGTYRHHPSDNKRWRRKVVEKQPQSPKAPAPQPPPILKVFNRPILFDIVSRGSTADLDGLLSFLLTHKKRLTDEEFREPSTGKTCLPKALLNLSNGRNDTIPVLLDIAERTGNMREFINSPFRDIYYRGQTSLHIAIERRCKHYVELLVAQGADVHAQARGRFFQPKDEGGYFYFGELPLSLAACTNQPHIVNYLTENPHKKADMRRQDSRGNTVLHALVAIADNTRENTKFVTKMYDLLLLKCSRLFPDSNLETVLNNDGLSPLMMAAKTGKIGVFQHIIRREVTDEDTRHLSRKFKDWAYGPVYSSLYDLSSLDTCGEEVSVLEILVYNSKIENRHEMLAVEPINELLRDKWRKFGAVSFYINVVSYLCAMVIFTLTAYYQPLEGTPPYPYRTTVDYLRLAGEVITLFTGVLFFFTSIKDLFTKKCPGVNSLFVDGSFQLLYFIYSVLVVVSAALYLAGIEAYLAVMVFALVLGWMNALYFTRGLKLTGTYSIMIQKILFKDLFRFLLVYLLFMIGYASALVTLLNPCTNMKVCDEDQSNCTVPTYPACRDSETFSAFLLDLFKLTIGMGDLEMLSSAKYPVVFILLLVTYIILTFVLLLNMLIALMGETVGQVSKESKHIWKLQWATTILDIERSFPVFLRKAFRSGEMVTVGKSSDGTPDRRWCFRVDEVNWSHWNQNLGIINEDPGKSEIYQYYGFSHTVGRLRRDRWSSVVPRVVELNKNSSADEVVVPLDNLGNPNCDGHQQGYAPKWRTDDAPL
Procedure: (§1) Ca++ imaging of mouse 1° MK in response to chemical activation of TRPV4 was conducted after loading with 2 μM fura2-AM, following a ratiometric Ca2+ imaging protocol with 340/380 nm […] for dual excitation. Ratios of emissions were acquired at 0.5 Hz. ΔR/R0 was determined as the fraction of the increase of a given ratio over baseline ratio, divided by baseline ratio. For stimulation of cells with UVB, where fura-2 was not suitable because of the proximity of stimulation with 340/380 nm and 295 nm, 2 μM fluo4-AM was used instead. Ca++ imaging was carried out at 488 nm excitation, acquisition of emissions at 0.5 Hz, expressed as ΔF/F0. In the custom-built UV optical system, UV LEDs were capped with a ball lens, a transparent optical window in the shape of a hemispherical lens (FIG. 2B). The LED output optical beam focused at 15-20 mm from the lens, with a spot diameter of approximately 1.5-2.0 mm (FIG. 2C). […] The thermal equilibration stage was set for physiological temperature. We confirmed the non-thermal nature of UVB stimulation using the customized 295 nm LED device in a dedicated experiment (FIG. 2D), thus confirming the specific modality of stimulation as UVB.

[2] = test system: primary mouse epidermal keratinocytes (1° MK); assay: UVB-evoked Ca++ signaling in primary mouse keratinocytes (fluo-4 imaging); type: cell-based; conditions: for effect on UVB-evoked Ca++ signal in 1° MK: concentration not given (IPP: same dose as against camphor); for effect on ET1-augmented, UVB-induced Ca++ transients in 1° MK: UVB and ET1 co-exposure
Procedure: Ca++ imaging of 1° MK was conducted following routine procedures. For UVB stimulation, a customized device was built. The system comprised a printed circuit board for electrical interconnects and mechanical support and an ultraviolet light-emitting diode (UV LED).
The operating wavelength was 295 nm (FIG. 2A), with a full-width half-max of 12 nm. The optical power was 500 mW. The focal point was aimed at the plane of the upper surface of the quartz coverslip, which was used to minimize UV absorption along the optical path towards the cells (FIG. 2A-C). The optical intensity at the focal point was estimated to be 150 mW/mm^2.
as §1, with “temperature.” for “temperature. We confirmed the non-thermal nature of UVB stimulation using the customized 295 nm LED device in a dedicated experiment (FIG. 2D), thus confirming the specific modality of stimulation as UVB.”

[3] = test system: ET1; assay: ET1 secretion by non-stimulated 1° MK (ELISA of supernatant); type: cell-based, mouse; conditions: two doses of GSK205, dose-dependent
[4] = test system: ET1; assay: ET1 expression by UVB-exposed 1° MK (immunocytochemistry); type: cell-based, mouse; conditions: for ET1 immunoreactivity in UVB-exposed 1° MK: immunolabeling 24 hours after UVB-LED; for ET1 expression in UVB-exposed 1° MK, densitometric quantification: vs. control-treated and UVB-exposed cells, n≧25 cells, p<0.05
Procedure: 1° MK were exposed to UVB using the UV optical system (295 nm LED). 24 hours later the cells were fixed and fluorescently immunolabeled for ET1. Digital images were captured and subjected to morphometry.
Mouse keratinocytes were cultured on collagen coated quartz coverslips and then stimulated from the bottom using the previously mentioned UV optical system using the 295 nm LED. 24 hours later the cells were fixed in 4% formaldehyde in PBS for 20 minutes, permeabilized with 0.1% Triton X-100 in PBS for 10 minutes, washed, then blocked in 10% normal goat serum in PBS for 45 minutes. Coverslips were incubated overnight with primary antibody mouse anti-ET1 (1:200; Abcam), washed three times in PBS and incubated with secondary antibody for 2 hours at 25° C. Coverslips were washed three times in PBS, once with double-distilled H2O. Digital images were captured using a 40× immersion lens on the BX61 Olympus upright microscope. Morphometric analysis was conducted using ImageJ freeware with tailored regions-of-interest.

[5] = molecular target: T1, TRPV4; assay: 4α-PDD-evoked Ca++ signaling in 1° MK (fura-2 ratiometric imaging); type: cell-based
Procedure: as §1

[6] = test system: mice; assay: Nocifensive behavior in response to ET1 footpad injection (von Frey); type: in vivo, mouse
Procedure: ET1 injections: After determining base-line withdrawal thresholds, each animal received an intraplantar injection of 10 μL 100 nM ET-1 plus contralateral vehicle. Thresholds were again evaluated 1 hour after injection.
Hindpaw mechanical withdrawal thresholds were determined by the automated von Frey hair method, using a 0.5 mm diameter stainless steel filament, part of an automated plantar touch stimulator (Ugo Basile, Modena, Italy). Relevant detail included pre-test acclimatization in a quiet room for 30 min, conducting the test at the same time of day and blinded observers. The stimulus was delivered to the hindpaw, automatically discontinued upon withdrawal, and its intensity recorded automatically. 6-8 trials per animal were conducted, with equal exposure of both hindpaws, leading to an average withdrawal threshold. Results are reported as Δ-threshold, which was calculated by subtracting post-treatment from pre-treatment measurements, expressed as % or relative to 1.0.

[7] = molecular target: T2, TRPV3 (Mus musculus, UniProt Q8K424); assay: TRPV3 activation experiment: camphor-evoked Ca++ transient in keratinocytes; type: cell-based
T2 construct: endogenous in cells; host or cells: primary mouse keratinocytes (1° MK)
T2 sequence (Q8K424 1-791): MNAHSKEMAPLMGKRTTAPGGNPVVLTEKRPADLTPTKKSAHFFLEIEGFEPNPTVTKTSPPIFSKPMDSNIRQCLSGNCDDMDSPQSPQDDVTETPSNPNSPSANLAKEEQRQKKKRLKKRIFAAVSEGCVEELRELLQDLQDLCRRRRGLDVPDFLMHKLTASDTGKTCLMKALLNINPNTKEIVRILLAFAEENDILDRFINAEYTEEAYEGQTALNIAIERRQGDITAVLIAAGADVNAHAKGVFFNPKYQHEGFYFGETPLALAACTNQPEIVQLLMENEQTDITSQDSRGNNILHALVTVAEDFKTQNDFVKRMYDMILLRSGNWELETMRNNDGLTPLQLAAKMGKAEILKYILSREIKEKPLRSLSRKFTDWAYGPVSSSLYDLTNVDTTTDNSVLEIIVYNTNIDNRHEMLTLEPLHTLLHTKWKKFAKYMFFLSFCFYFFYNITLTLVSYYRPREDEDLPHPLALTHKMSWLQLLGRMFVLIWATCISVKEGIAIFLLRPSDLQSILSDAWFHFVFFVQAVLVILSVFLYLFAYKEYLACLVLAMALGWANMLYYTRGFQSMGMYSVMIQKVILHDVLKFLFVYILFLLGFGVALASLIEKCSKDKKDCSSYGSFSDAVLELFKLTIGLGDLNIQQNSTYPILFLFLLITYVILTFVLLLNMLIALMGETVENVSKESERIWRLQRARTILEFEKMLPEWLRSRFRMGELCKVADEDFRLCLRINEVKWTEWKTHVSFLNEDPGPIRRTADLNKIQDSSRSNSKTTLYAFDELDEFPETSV

Compound | effect on UVB-evoked Ca++ signal in 1° MK [2] | ET1 secretion by non-stimulated 1° MK [3] | ET1 immunoreactivity in UVB-exposed 1° MK [4] | ET1 expression in UVB-exposed 1° MK, densitometric quantification [4] | further results
CC(C)C[C@H](NC(=O)c1cc2ccccc2s1)C(=O)N1CCN(C(=O)[C@H](CO)NS(=O)(=O)c2ccc(Cl)cc2Cl)CC1 [GSK101] |  |  |  |  | Ca++ transient evoked in 1° MK ([1]; 5 nM GSK101, WT 1° MK): directly stimulate TRPV4; also recorded: Ca++ transient
O=C(O)C(Cc1ccc2c(c1)oc1ccccc12)NCP(=O)(O)O (stereo not shown) [CGS35066] | significantly diminished; also recorded: significant attenuation | down-regulation | significant down-regulation | significant down-regulation | 
COc1ccc2c(c1)CC[C@@H]1[C@@H]2CC[C@]2(C)[C@@H](NCCCCCCN3C(=O)C=CC3=O)CC[C@@H]12 [U73122] | virtually eliminated; also recorded: strongly reduced | down-regulation | dampened; also recorded: significant down-regulation | significant down-regulation | 
endothelin-1 [ET1] |  |  |  |  | effect of ET1 co-exposure on UVB-evoked Ca++ transients in 1° MK ([2]; co-exposure UVB + ET1 peptide): significant increase; also recorded: augmentation; effect of ET1 on GSK101-evoked Ca++ signaling ([1]; 5 nM GSK101, co-exposure to ET1): augmented; also recorded: increase in signal; effect of ET1 co-application on 4α-PDD-evoked Ca++ response ([5]; co-application with 4α-PDD): significant increase; mechanical allodynia after ET1 footpad injection, TRPV4-deficient mice ([6]; Trpv4−/− and tam-treated iKO mice): fail to respond; mechanical withdrawal thresholds after ET1 footpad injection, control mice ([6]; WT and oil-treated iKO mice, 10 μL 100 nM ET-1 intraplantar): significantly lowered; also recorded: significant levels of mechanical allodynia
CC12CCC(CC1=O)C2(C)C (stereo not shown) [camphor, Camphor] |  |  |  |  | induction of a Ca++ transient [7]: Induction of a Ca++ transient
CCCCCCCCCC(=O)O[C@@H]1[C@@H](C)[C@@]2(O)[C@@H](C=C(CO)C[C@@]3(O)C(=O)C(C)=C[C@@H]23)[C@@H]2C(C)(C)[C@]12OC(=O)CCCCCCCCC [4α-PDD, 4α-phorbol 12,13 didecanoate] |  |  |  |  | Ca++ transients evoked in 1° MK ([5]; 4α-PDD): Ca++ transients
C=C(C)CCO[P@@](=O)(O)OP(=O)(O)O [IPP, isopentenyl pyrophosphate] | no effect; also recorded: not inhibited |  |  |  | 
CCCC[C@@H](NC(=O)[C@@H](Cc1cn(C(=O)OC)c2ccccc12)NC(=O)[C@H](CC(C)(C)C)NC(=O)N1[C@H](C)CCC[C@@H]1C)C(=O)O [BQ788] |  |  |  |  | effect on ET1-augmented, UVB-induced Ca++ transients in 1° MK [2]: attenuated
CC(C)NCCN(C(C)C)S(=O)(=O)c1ccc(Cl)cc1Cl [RN1734] |  | significant down-regulation | diminished; also recorded: significant down-regulation | significant down-regulation | 
CC(C)C[C@@H]1NC(=O)[C@@H](C(C)C)NC(=O)[C@@H]2CCCN2C(=O)[C@@H](CC(=O)O)NC(=O)[C@@H](Cc2c[nH]c3ccccc23)NC1=O [BQ123] (cyclo(L[dW][dD]P[dV])) |  |  |  |  | effect on ET1-augmented, UVB-induced Ca++ transients in 1° MK [2]: attenuated
